Results reported in patent US7994140B2, “Classes of compounds that interact with GPCRs” (Alchemia Limited, priority 2002, dated 2011).

Assays:
SST5 = target: T1, SST5 (Homo sapiens, UniProt P35346); test: GPCR radioligand binding (RLB) assay, somatostatin SST5, [125I]SST-14; details: 10 micromolar compound; recombinant human receptor membranes (HEK 293)
T1 construct: purchased Perkin Elmer BioSignal; host or cells: HEK 293
Summary of the method: (§1)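 Competition binding against radioligand ([125I]NDP-αMSH for MC4, [125I]SST-14 for SST5) on membranes of HEK 293 cells carrying the human receptor; buffer and incubation time optimized per receptor. Filtration through 0.5% PEI-treated glass fiber, washing, then scintillation counting.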

MC4 = target: T2, MC4 (Homo sapiens, UniProt P32245); test: GPCR radioligand binding (RLB) assay, melanocortin MC4, [125I]NDP-αMSH; details: 10 micromolar compound; recombinant human receptor membranes (HEK 293)
T2 construct: purchased Perkin Elmer BioSignal; host or cells: HEK 293
Summary of the method: as §1

T1 sequence (P35346 whole entry): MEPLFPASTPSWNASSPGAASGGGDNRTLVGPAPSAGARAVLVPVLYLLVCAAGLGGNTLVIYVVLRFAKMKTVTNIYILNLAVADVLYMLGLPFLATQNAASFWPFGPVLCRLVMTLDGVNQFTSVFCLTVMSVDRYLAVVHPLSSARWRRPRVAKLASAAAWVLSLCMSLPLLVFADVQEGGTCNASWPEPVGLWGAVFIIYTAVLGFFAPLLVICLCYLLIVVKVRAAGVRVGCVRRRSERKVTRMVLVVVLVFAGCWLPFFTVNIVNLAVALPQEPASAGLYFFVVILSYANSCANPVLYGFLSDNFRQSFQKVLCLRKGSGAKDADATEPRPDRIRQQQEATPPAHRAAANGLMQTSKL
T2 sequence (P32245 whole entry): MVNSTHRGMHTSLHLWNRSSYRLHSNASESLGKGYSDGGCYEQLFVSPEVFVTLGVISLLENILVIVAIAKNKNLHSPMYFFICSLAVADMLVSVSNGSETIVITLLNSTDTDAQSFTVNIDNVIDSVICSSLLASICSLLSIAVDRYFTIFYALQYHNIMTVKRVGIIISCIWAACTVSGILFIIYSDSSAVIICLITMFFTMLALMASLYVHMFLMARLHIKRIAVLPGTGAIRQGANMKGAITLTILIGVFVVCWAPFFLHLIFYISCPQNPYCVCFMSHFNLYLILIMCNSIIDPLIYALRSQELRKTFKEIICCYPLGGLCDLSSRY

Compound | SST5 inhibition at 10 micromolar (SST5) | MC4 inhibition at 10 micromolar (MC4)
CSC1OC(COCc2ccc(Cl)cc2)C(O)C(OCc2ccc(Cl)cc2)C1NC(=O)CCCNC(=N)N (centres unmarked) [Compound 154] | + (Indicates inhibition greater than . . . 50%) | + (Indicates inhibition greater than . . . 50%)
CSC1OC(COCc2ccc(-c3ccccc3)cc2)C(O)C(OCc2ccc(Cl)cc2)C1NC(=O)CN (centres unmarked) [Compound 155] | + (Indicates inhibition greater than . . . 50%) | + (Indicates inhibition greater than . . . 50%)
CSC1OC(COCc2ccc(-c3ccccc3)cc2)C(O)C(OCc2ccc(Cl)cc2)C1NC(=O)CNC(=N)N (centres unmarked) [Compound 156] | + (Indicates inhibition greater than . . . 50%) | + (Indicates inhibition greater than . . . 50%)
CSC1OC(COCc2ccc(-c3ccccc3)cc2)C(O)C(OCc2ccc(Cl)cc2)C1NC(=O)CCN (centres unmarked) [Compound 157] | + (Indicates inhibition greater than . . . 50%) | + (Indicates inhibition greater than . . . 50%)
CSC1OC(COCc2ccc(-c3ccccc3)cc2)C(O)C(OCc2ccc(Cl)cc2)C1NC(=O)CCNC(=N)N (centres unmarked) [Compound 158] | + (Indicates inhibition greater than . . . 50%) | + (Indicates inhibition greater than . . . 50%)
CSC1OC(COCc2ccc(-c3ccccc3)cc2)C(O)C(OCc2ccc(Cl)cc2)C1NC(=O)CCCN (centres unmarked) [Compound 159] | + (Indicates inhibition greater than . . . 50%) | + (Indicates inhibition greater than . . . 50%)
CSC1OC(COCc2ccc(-c3ccccc3)cc2)C(O)C(OCc2ccc(Cl)cc2)C1NC(=O)CCCNC(=N)N (centres unmarked) [Compound 160] | + (Indicates inhibition greater than . . . 50%) | + (Indicates inhibition greater than . . . 50%)
CSC1OC(COCc2ccc3ccccc3c2)C(O)C(OCc2ccc(Cl)cc2)C1NC(=O)CN (centres unmarked) [Compound 161] | + (Indicates inhibition greater than . . . 50%) | + (Indicates inhibition greater than . . . 50%)
CSC1OC(COCc2ccc3ccccc3c2)C(O)C(OCc2ccc(Cl)cc2)C1NC(=O)CNC(=N)N (centres unmarked) [Compound 162] | + (Indicates inhibition greater than . . . 50%) | + (Indicates inhibition greater than . . . 50%)
CSC1OC(COCc2ccc3ccccc3c2)C(O)C(OCc2ccc(Cl)cc2)C1NC(=O)CCN (centres unmarked) [Compound 163] | + (Indicates inhibition greater than . . . 50%) | + (Indicates inhibition greater than . . . 50%)
CSC1OC(COCc2ccc3ccccc3c2)C(O)C(OCc2ccc(Cl)cc2)C1NC(=O)CCNC(=N)N (centres unmarked) [Compound 164] | + (Indicates inhibition greater than . . . 50%) | + (Indicates inhibition greater than . . . 50%)
CSC1OC(COCc2ccc3ccccc3c2)C(O)C(OCc2ccc(Cl)cc2)C1NC(=O)CCCN (centres unmarked) [Compound 165] | + (Indicates inhibition greater than . . . 50%) | + (Indicates inhibition greater than . . . 50%)
CSC1OC(COCc2ccc3ccccc3c2)C(O)C(OCc2ccc(Cl)cc2)C1NC(=O)CCCNC(=N)N (centres unmarked) [Compound 166] | + (Indicates inhibition greater than . . . 50%) | + (Indicates inhibition greater than . . . 50%)
CSC1OC(COCc2ccccc2)C(O)C(OCc2ccc(-c3ccccc3)cc2)C1NC(=O)CN (centres unmarked) [Compound 167] | + (Indicates inhibition greater than . . . 50%) | + (Indicates inhibition greater than . . . 50%)
CSC1OC(COCc2ccccc2)C(O)C(OCc2ccc(-c3ccccc3)cc2)C1NC(=O)CNC(=N)N (centres unmarked) [Compound 168] | + (Indicates inhibition greater than . . . 50%) | + (Indicates inhibition greater than . . . 50%)
CSC1OC(COCc2ccccc2)C(O)C(OCc2ccc(-c3ccccc3)cc2)C1NC(=O)CCN (centres unmarked) [Compound 169] | + (Indicates inhibition greater than . . . 50%) | + (Indicates inhibition greater than . . . 50%)
CSC1OC(COCc2ccccc2)C(O)C(OCc2ccc(-c3ccccc3)cc2)C1NC(=O)CCNC(=N)N (centres unmarked) [Compound 170] | + (Indicates inhibition greater than . . . 50%) | + (Indicates inhibition greater than . . . 50%)
CSC1OC(COCc2ccccc2)C(O)C(OCc2ccc(-c3ccccc3)cc2)C1NC(=O)CCCN (centres unmarked) [Compound 171] | + (Indicates inhibition greater than . . . 50%) | + (Indicates inhibition greater than . . . 50%)
CSC1OC(COCc2ccccc2)C(O)C(OCc2ccc(-c3ccccc3)cc2)C1NC(=O)CCCNC(=N)N (centres unmarked) [Compound 172] | + (Indicates inhibition greater than . . . 50%) | + (Indicates inhibition greater than . . . 50%)

Compound | SST5 inhibition at 10 micromolar (SST5) | MC4 inhibition at 10 micromolar (MC4)
CSC1OC(COCc2ccc(Cl)cc2)C(O)C(OCc2ccc(-c3ccccc3)cc2)C1NC(=O)CN (centres unmarked) [Compound 173] | + (Indicates inhibition greater than . . . 50%) | + (Indicates inhibition greater than . . . 50%)
CSC1OC(COCc2ccc(Cl)cc2)C(O)C(OCc2ccc(-c3ccccc3)cc2)C1NC(=O)CNC(=N)N (centres unmarked) [Compound 174] | + (Indicates inhibition greater than . . . 50%) | + (Indicates inhibition greater than . . . 50%)
CSC1OC(COCc2ccc(Cl)cc2)C(O)C(OCc2ccc(-c3ccccc3)cc2)C1NC(=O)CCN (centres unmarked) [Compound 175] | + (Indicates inhibition greater than . . . 50%) | + (Indicates inhibition greater than . . . 50%)
CSC1OC(COCc2ccc(Cl)cc2)C(O)C(OCc2ccc(-c3ccccc3)cc2)C1NC(=O)CCNC(=N)N (centres unmarked) [Compound 176] | + (Indicates inhibition greater than . . . 50%) | + (Indicates inhibition greater than . . . 50%)
CSC1OC(COCc2ccc(Cl)cc2)C(O)C(OCc2ccc(-c3ccccc3)cc2)C1NC(=O)CCCN (centres unmarked) [Compound 177] | + (Indicates inhibition greater than . . . 50%) | + (Indicates inhibition greater than . . . 50%)
CSC1OC(COCc2ccc(Cl)cc2)C(O)C(OCc2ccc(-c3ccccc3)cc2)C1NC(=O)CCCNC(=N)N (centres unmarked) [Compound 178] | + (Indicates inhibition greater than . . . 50%) | + (Indicates inhibition greater than . . . 50%)
CSC1OC(COCc2ccc(-c3ccccc3)cc2)C(O)C(OCc2ccc(-c3ccccc3)cc2)C1NC(=O)CN (centres unmarked) [Compound 179] | + (Indicates inhibition greater than . . . 50%) | + (Indicates inhibition greater than . . . 50%)
CSC1OC(COCc2ccc(-c3ccccc3)cc2)C(O)C(OCc2ccc(-c3ccccc3)cc2)C1NC(=O)CNC(=N)N (centres unmarked) [Compound 180] | + (Indicates inhibition greater than . . . 50%) | + (Indicates inhibition greater than . . . 50%)
CSC1OC(COCc2ccc(-c3ccccc3)cc2)C(O)C(OCc2ccc(-c3ccccc3)cc2)C1NC(=O)CCN (centres unmarked) [Compound 181] | + (Indicates inhibition greater than . . . 50%) | + (Indicates inhibition greater than . . . 50%)
CSC1OC(COCc2ccc(-c3ccccc3)cc2)C(O)C(OCc2ccc(-c3ccccc3)cc2)C1NC(=O)CCNC(=N)N (centres unmarked) [Compound 182] | + (Indicates inhibition greater than . . . 50%) | + (Indicates inhibition greater than . . . 50%)
CSC1OC(COCc2ccc(-c3ccccc3)cc2)C(O)C(OCc2ccc(-c3ccccc3)cc2)C1NC(=O)CCCN (centres unmarked) [Compound 183] | + (Indicates inhibition greater than . . . 50%) | + (Indicates inhibition greater than . . . 50%)
CSC1OC(COCc2ccc3ccccc3c2)C(O)C(OCc2ccc(-c3ccccc3)cc2)C1NC(=O)CNC(=N)N (centres unmarked) [Compound 186] | + (Indicates inhibition greater than . . . 50%) | + (Indicates inhibition greater than . . . 50%)
CSC1OC(COCc2ccc3ccccc3c2)C(O)C(OCc2ccc(-c3ccccc3)cc2)C1NC(=O)CCN (centres unmarked) [Compound 187] | + (Indicates inhibition greater than . . . 50%) | + (Indicates inhibition greater than . . . 50%)
CSC1OC(COCc2ccc3ccccc3c2)C(O)C(OCc2ccc(-c3ccccc3)cc2)C1NC(=O)CCNC(=N)N (centres unmarked) [Compound 188] | + (Indicates inhibition greater than . . . 50%) | + (Indicates inhibition greater than . . . 50%)
CSC1OC(COCc2ccc3ccccc3c2)C(O)C(OCc2ccc(-c3ccccc3)cc2)C1NC(=O)CCCN (centres unmarked) [Compound 189] | + (Indicates inhibition greater than . . . 50%) | + (Indicates inhibition greater than . . . 50%)
CSC1OC(COCc2ccc3ccccc3c2)C(O)C(OCc2ccc(-c3ccccc3)cc2)C1NC(=O)CCCNC(=N)N (centres unmarked) [Compound 190] | + (Indicates inhibition greater than . . . 50%) | + (Indicates inhibition greater than . . . 50%)
CSC1OC(COCc2ccccc2)C(O)C(OCc2ccc3ccccc3c2)C1NC(=O)CN (centres unmarked) [Compound 191] | + (Indicates inhibition greater than . . . 50%) | + (Indicates inhibition greater than . . . 50%)
CSC1OC(COCc2ccccc2)C(O)C(OCc2ccc3ccccc3c2)C1NC(=O)CNC(=N)N (centres unmarked) [Compound 192] | + (Indicates inhibition greater than . . . 50%) | + (Indicates inhibition greater than . . . 50%)
